Experimental data: patent US11446338B2, “Food, cosmetic and pharmaceutical formulation with an immunomodulatory and protective anti-viral effect” (priority 2018, dated 2022)

System: H1N1 influenza virus (California 2011)
Test: Prevention of mortality in immunodeficient mice infected with H1N1 influenza virus
Format: in vivo
Details: cyclophosphamide-immunodeficient mice, oral 0.2 ml daily, 10 ED90/mouse intranasally

Structure (SMILES): CC(N)C12CC3CC(CC(C3)C1)C2 (centres unmarked) [Rimantadine]
- Percentage of surviving animals after experiment, %: 50%
- The number of surviving animals after the experiment, n = 10: 5
